Test results from patent US20250388625A1, “CYCLOSPORINE ANALOGUES” (priority 2022, published 2025).
Like-named read-outs stand apart in the source and are kept apart here.

What was measured:
CypA = CypA (Homo sapiens, UniProt P62937); experiment: biochemical; assay type: binding; conditions: for Kd / Max Response: SPR, Biacore, 25° C.
Procedure: CypA binding was carried out using surface plasmon resonance as described (Warne J Biol Chem. 2016 Feb. 26; 291 (9): 4356-73).
Surface Plasmon Resonance (SPR) using Biacore at 25° C. was used to study the binding interactions between CypA and various inhibitors. The SPR binding experiments used a duel flow cell with a blank reference. The sensor chip surface was initially activated with a mixture of N-hydroxysuccinimide (NHS,) and N-(3-dimethyl-aminopropyl)-N′-ethyl-carbodiimide hydrochloride (EDC) for 420 s with a flow rate of 10 μl/min on blank flow cell 1 in addition to flow cell 2.
CypA protein was diluted to a concentration of 50 μg/mL by the addition of 10 mM sodium acetate pH 5 solution before immobilisation and covalent attachment to the carboxy-methylated dextran matrix of the Biacore CM5 sensor chip. CypA was run against the surface for 420 s and then any unreacted surface was quenched by 420 s of ethanolamine.
Immobilisations were carried out in the presence of JW47 (Warne J Biol Chem. 2016 Feb. 26; 291 (9): 4356-73).
No regeneration stage was required if the dissociation time was sufficient.
Solvent correction was carried out in each experiment using 8 different DMSO dilutions as reference: 2.8%, 2.6%, 2.4%, 2.2%, 2%, 1.8%, 1.6% & 1.5%.
A 50/50 mixture of buffer and DMSO is required to include a wash cycle in the experiment.
50 μl of CypA (0.1 mg/ml)+40 μL of 10 mM sodium acetate pH5+10 μl of 600 μM of JW47 DMSO solution. This mixture was allowed to stand at room temperature for 10 mins prior to set-up in the injection rack.

U87 cells = experiment: HIV-GFP infection of U87 cells (FIG. 2); assay type: cell-based; conditions: MOI 0.3, tested at 2.5, 5, or 10 μM
Procedure: Next, an experiment was performed in U87 cells. These cells differ from THP-1 in that they express IFITM3 and TRIM5. Thus only inhibitors with reduced CypA inhibition will rescue infection. This functionally tests whether the inhibitors have lost CypA inhibition, but retain IFITM3 inhibition.
U87 cells were infected at an MOI of 0.3 in the presence of DMSO (0.1% v/v) or inhibitors at 2.5, 5, or 10 μM (left bar to right bar for each indicated compound, respectively). Inhibition of IFITM3 raises infectivity. Unlike other inhibitors, BG147 gives maximal infection enhancement at the lowest concentration of 2.5 μM. Other molecules achieve maximal infection rescue at the highest concentration.

Human stem cells (HSC) [1] = assay type: cell-based
Human stem cells (HSC) [2] = experiment: Mean fluorescent intensity of transduced human stem cells (FIG. 7); assay type: cell-based
Procedure: Here a different measurement was made of transgene expression using the cells from the same experiment as that above (Example 5). Rather than measuring the number of cells transduced (% infection) the mean fluorescent intensity (greenness of the transgene expressing cells) was measured.

Human stem cells (HSC) [3] = experiment: Cell viability of human stem cells (FIG. 5); conditions: compared with PS+LB treatment
IFITM3 [4] = target: T1, IFITM3 (Homo sapiens, UniProt Q01628); assay type: cell-based; design: treated with 10 ng/ml type 1 interferon (IFNβ) overnight to induce IFITM3 expression; endogenous in cells; host or cells: THP-1 (human monocytic cell line), IFNβ-treated
IFITM3 [5] = target: T1, IFITM3; assay type: cell-based; design: treated with 10 ng/ml type 1 interferon (IFNβ) overnight to induce IFITM3 expression; endogenous in cells; host or cells: THP-1 (human monocytic cell line), IFNβ-treated; remark: listed apart in the source
IFITM3 [6] = target: T1, IFITM3; assay type: cell-based; design: treated with 10 ng/ml type 1 interferon (IFNβ) overnight to induce IFITM3 expression; endogenous in cells; host or cells: THP-1 (human monocytic cell line), IFNβ-treated; remark: listed apart in the source
IFITM3 [7] = target: T1, IFITM3; experiment: cell-based or functional assay
cyclophilin A (CypA) = cyclophilin A (CypA) (UniProt P62937); experiment: SPR (Biacore, 25 C), CypA amine-coupled to CM5 chip, compound as analyte
Sequence of cyclophilin A (CypA) (P62937 whole entry): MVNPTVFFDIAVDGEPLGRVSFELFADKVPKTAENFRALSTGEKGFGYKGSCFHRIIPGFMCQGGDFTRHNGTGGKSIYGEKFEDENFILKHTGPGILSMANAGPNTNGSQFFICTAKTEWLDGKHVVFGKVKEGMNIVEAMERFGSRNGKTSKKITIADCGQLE

T1 sequence (Q01628 whole entry): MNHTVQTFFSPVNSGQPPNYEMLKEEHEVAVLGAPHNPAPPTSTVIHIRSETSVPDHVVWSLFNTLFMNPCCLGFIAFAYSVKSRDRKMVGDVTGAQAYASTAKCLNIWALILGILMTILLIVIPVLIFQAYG
Sequence of CypA (P62937 whole entry): as the sequence (P62937 whole entry) above

CC[C@@H]1NC(=O)[C@H]([C@H](O)[C@H](C)C/C=C/c2ccc(C(=O)OCCn3ccnc3)c3ccccc23)N(C)C(=O)[C@H](C(C)C)N(C)C(=O)[C@H](CC(C)C)N(C)C(=O)[C@H](CC(C)C)N(C)C(=O)[C@@H](C)NC(=O)[C@H](C)NC(=O)[C@H](CC(C)C)N(C)C(=O)[C@H](C(C)C)NC(=O)[C@H](CC(C)C)N(C)C(=O)CN(C)C1=O [BG147, 2-(1H-imidazol-1-yl)-ethyl-4-((4R,5R,E)-5-((2S,5S,11S,14S,17S,20S,23R,26S,29S,32S)-5-ethyl-11,17,26,29-tetraisobutyl-14,32-diisopropyl-1,7,10,16,20,23,25,28,31-nonamethyl-3,6,9,12,15,18,21,24,27,30,33-undecaoxo-1,4,7,10,13,16,19,22,25,28,31-undecaazacyclotritriacontan-2-yl)-5-hydroxy-4-methylpent-1-en-1-yl)-1-naphthoate]
koff (CypA): 0.0216 s⁻¹
kon (CypA): 9750 M⁻¹ s⁻¹
Kd (CypA; Kd (Affinity)): 5.27 µM
Kd (CypA; Kd (Kinetics)): 2.22 µM
Max Response (CypA): 14.0 RU
concentration giving maximal infection enhancement (U87 cells): 2.5 µM
transduction enhancement (% infected human stem cells), first donor (Human stem cells (HSC) [1]; 48 hours post transduction, FIG. 4): out performs other inhibitors and is as effective as state of the art transduction enhancer
transduction enhancement (% infected human stem cells), second HSC donor (Human stem cells (HSC) [1]; 48 hours post transduction, FIG. 6): out-performed other inhibitors including state of the art transduction enhancer combination of LB+PS
combination effect on number of transduced cells (Human stem cells (HSC) [1]; BG147 at 2.5 μM with PS and LB, second HSC donor): additive with PS and LB giving the best number of transduced (infected) cells
overall performance as transduction enhancer in stem cells (Human stem cells (HSC) [2]; Examples 5 and 6): performs best
mean fluorescent intensity (greenness of transgene expressing cells) (Human stem cells (HSC) [2]; treatment with 2.5 μM BG147+PS+LB): greenest cells
cell viability after treatment (Human stem cells (HSC) [3]): viability is good
rescue of infection from IFN (% infected cells) (IFITM3 [4]): completely rescued infection from IFN
relative potency in rescue of infection (IFITM3 [5]): more potent than CsH
rescue of infection from the antiviral effect of IFN (IFITM3 [5]): rescue infection from the antiviral effect of IFN

CCc1cc(C(=O)OCCn2ccnc2)ccc1C=CC[C@@H](C)[C@@H](O)[C@H]1C(=O)N[C@@H](CC)C(=O)N(C)CC(=O)N(C)[C@@H](CC(C)C)C(=O)N[C@@H](C(C)C)C(=O)N(C)[C@@H](CC(C)C)C(=O)N[C@@H](C)C(=O)N[C@H](C)C(=O)N(C)[C@@H](CC(C)C)C(=O)N(C)[C@@H](CC(C)C)C(=O)N(C)[C@@H](C(C)C)C(=O)N1C [BG149]
Max Response (CypA): 4.8 RU

CC[C@@H]1NC(=O)[C@H]([C@H](O)[C@H](C)CC=Cc2ccc(C(=O)OCCn3ccnc3)cc2C)N(C)C(=O)[C@H](C(C)C)N(C)C(=O)[C@H](CC(C)C)N(C)C(=O)[C@H](CC(C)C)N(C)C(=O)[C@@H](C)NC(=O)[C@H](C)NC(=O)[C@H](CC(C)C)N(C)C(=O)[C@H](C(C)C)NC(=O)[C@H](CC(C)C)N(C)C(=O)CN(C)C1=O [BG150]
koff (CypA): 0.0425 s⁻¹
kon (CypA): 11100 M⁻¹ s⁻¹
Max Response (CypA): 18.7 RU
Kd (CypA; read-out: Kd (Affinity)): 1.31 µM
Kd (CypA; read-out: Kd (Kinetics)): 3.84 µM

CC[C@@H]1NC(=O)[C@H]([C@H](O)[C@H](C)CC=Cc2ccc(C(=O)OCCn3ccnc3)cc2OC)N(C)C(=O)[C@H](C(C)C)N(C)C(=O)[C@H](CC(C)C)N(C)C(=O)[C@H](CC(C)C)N(C)C(=O)[C@@H](C)NC(=O)[C@H](C)NC(=O)[C@H](CC(C)C)N(C)C(=O)[C@H](C(C)C)NC(=O)[C@H](CC(C)C)N(C)C(=O)CN(C)C1=O [BG181]
koff (CypA): 0.228 s⁻¹
kon (CypA): 6360 M⁻¹ s⁻¹
Max Response (CypA): 9.8 RU
Kd (CypA; read-out: Kd (Affinity)): 2.66 µM
Kd (CypA; read-out: Kd (Kinetics)): 35.9 µM

CC[C@@H]1NC(=O)[C@H]([C@H](O)[C@H](C)CC=Cc2ccc(C(=O)OCCn3ccnc3)cc2OC(C)C)N(C)C(=O)[C@H](C(C)C)N(C)C(=O)[C@H](CC(C)C)N(C)C(=O)[C@H](CC(C)C)N(C)C(=O)[C@@H](C)NC(=O)[C@H](C)NC(=O)[C@H](CC(C)C)N(C)C(=O)[C@H](C(C)C)NC(=O)[C@H](CC(C)C)N(C)C(=O)CN(C)C1=O [BG185]
koff (CypA): 0.584 s⁻¹
kon (CypA): 2250 M⁻¹ s⁻¹
Max Response (CypA): 14.5 RU
Kd (CypA; read-out: Kd (Affinity)): 2.92 µM
Kd (CypA; read-out: Kd (Kinetics)): 259 µM

CC[C@@H]1NC(=O)[C@H]([C@H](O)[C@H](C)CC=Cc2c(OC)cc(C(=O)OCCn3ccnc3)cc2OC)N(C)C(=O)[C@H](C(C)C)N(C)C(=O)[C@H](CC(C)C)N(C)C(=O)[C@H](CC(C)C)N(C)C(=O)[C@@H](C)NC(=O)[C@H](C)NC(=O)[C@H](CC(C)C)N(C)C(=O)[C@H](C(C)C)NC(=O)[C@H](CC(C)C)N(C)C(=O)CN(C)C1=O [BG186, 2-(1H-imidazol-1-yl)ethyl 4-((4R,5R)-5-((2S,5S,11S,14S,17S,20S,23R,26S,29S,32S)-5-ethyl-11,17,26,29-tetraisobutyl-14,32-diisopropyl-1,7,10,16,20,23,25,28,31-nonamethyl-3,6,9,12,15,18,21,24,27,30,33-undecaoxo-1,4,7,10,13,16,19,22,25,28,31-undecaazacyclotritriacontan-2-yl)-5-hydroxy-4-methylpent-1-en-1-yl)-3,5-dimethoxybenzoate]
koff (CypA): 0.422 s⁻¹
kon (CypA): 14600 M⁻¹ s⁻¹
Kd (CypA; Kd (Affinity)): 4.76 µM
Kd (CypA; Kd (Kinetics)): 28.9 µM
Max Response (CypA): 7.6 RU

CC[C@@H]1NC(=O)[C@H]([C@H](O)[C@H](C)CC=Cc2ccc(C(=O)OCCn3ccnc3)cc2C(F)(F)F)N(C)C(=O)[C@H](C(C)C)N(C)C(=O)[C@H](CC(C)C)N(C)C(=O)[C@H](CC(C)C)N(C)C(=O)[C@@H](C)NC(=O)[C@H](C)NC(=O)[C@H](CC(C)C)N(C)C(=O)[C@H](C(C)C)NC(=O)[C@H](CC(C)C)N(C)C(=O)CN(C)C1=O [BG190]
koff (CypA): 0.0138 s⁻¹
kon (CypA): 4800 M⁻¹ s⁻¹
Max Response (CypA): 13.2 RU
Kd (CypA; read-out: Kd (Affinity)): 6.07 µM

C/C=C/C[C@@H](C)[C@@H](O)[C@H]1C(=O)N[C@@H](CC)C(=O)N(C)CC(=O)N(C)[C@@H](CC(C)C)C(=O)N[C@@H](C(C)C)C(=O)N(C)[C@@H](CC(C)C)C(=O)N[C@@H](C)C(=O)N[C@H](C)C(=O)N(C)[C@@H](CC(C)C)C(=O)N(C)[C@@H](CC(C)C)C(=O)N(C)[C@H](C(C)C)C(=O)N1C [CsH, Cyclosporine H, reference compound]
transduction enhancement (% infected human stem cells), first donor (Human stem cells (HSC) [1]): achieves good enhancement but at higher concentrations
rescue of infection from the antiviral effect of IFN (IFITM3 [5]): rescue infection from the antiviral effect of IFN

CC[C@@H]1NC(=O)[C@H]([C@H](O)[C@H](C)C/C=C/CCCn2ccnc2)N(C)C(=O)C(C(C)C)N(C)C(=O)[C@H](CC(C)C)N(C)C(=O)[C@H](CC(C)C)N(C)C(=O)[C@@H](C)NC(=O)[C@H](C)NC(=O)[C@H](CC(C)C)N(C)C(=O)[C@H](C(C)C)NC(=O)[C@H](CC(C)C)N(C)C(=O)CN(C)C1=O (stereo partly shown) [JW-115, reference compound]
fold rescue compared to inhibited baseline (IFITM3 [6]): 14.2 fold

Cyclosporine A (CsA) (peptide)
fold rescue of HIV-GFP infection compared to IFN-inhibited baseline, THP-1 cells, compound at 5 µM (IFITM3 [7]): 9.9 fold
Max Response (cyclophilin A (CypA)): 40 RU

Cyclosporine H (CsH) (peptide)
fold rescue of HIV-GFP infection compared to IFN-inhibited baseline, THP-1 cells, compound at 5 µM (IFITM3 [7]): 24.6 fold
